Reference: article PMC5640644, “HDX reveals the conformational dynamics of DNA sequence specific VDR co-activator interactions” (Nature Communications, 2017)

Target: T1, VDRRXRα heterodimer (Homo sapiens, UniProt P11473, DEL151-190)
T1 construct: Full-length WT His-hVDR (Δ (151–190)) and WT Flag-h RXRα were expressed in a baculovirus system; His; made in house; host or cells: baculovirus system (VDR, RXRα); Escherichia coli BL21 DE3 (SRC1 RID)
T1 sequence (P11473 with tags, fused parts or gaps DEL151-190): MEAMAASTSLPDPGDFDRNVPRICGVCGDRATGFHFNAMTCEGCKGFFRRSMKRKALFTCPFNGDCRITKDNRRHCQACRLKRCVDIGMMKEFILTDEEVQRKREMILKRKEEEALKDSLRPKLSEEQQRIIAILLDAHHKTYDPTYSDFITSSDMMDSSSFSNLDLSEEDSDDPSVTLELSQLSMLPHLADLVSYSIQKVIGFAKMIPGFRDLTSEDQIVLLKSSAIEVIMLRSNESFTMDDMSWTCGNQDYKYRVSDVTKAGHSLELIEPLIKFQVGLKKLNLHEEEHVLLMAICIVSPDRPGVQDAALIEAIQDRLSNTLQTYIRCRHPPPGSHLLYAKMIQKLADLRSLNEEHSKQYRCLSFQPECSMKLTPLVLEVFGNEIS
T1 sequence (P19793 1-462 partner): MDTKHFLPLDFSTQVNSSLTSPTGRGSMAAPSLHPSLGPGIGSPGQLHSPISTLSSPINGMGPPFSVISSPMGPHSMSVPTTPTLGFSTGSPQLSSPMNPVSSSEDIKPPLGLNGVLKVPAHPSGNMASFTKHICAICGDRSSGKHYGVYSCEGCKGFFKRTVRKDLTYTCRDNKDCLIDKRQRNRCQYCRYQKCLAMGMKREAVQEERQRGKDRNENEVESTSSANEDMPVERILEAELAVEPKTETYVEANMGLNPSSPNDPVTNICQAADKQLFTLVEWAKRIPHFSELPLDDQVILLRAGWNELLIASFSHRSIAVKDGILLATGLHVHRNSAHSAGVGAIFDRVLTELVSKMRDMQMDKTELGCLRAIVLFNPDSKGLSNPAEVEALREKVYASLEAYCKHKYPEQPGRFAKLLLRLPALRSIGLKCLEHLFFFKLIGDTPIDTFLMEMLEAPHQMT
T1 sequence (Q15788 627-786 partner limits assumed): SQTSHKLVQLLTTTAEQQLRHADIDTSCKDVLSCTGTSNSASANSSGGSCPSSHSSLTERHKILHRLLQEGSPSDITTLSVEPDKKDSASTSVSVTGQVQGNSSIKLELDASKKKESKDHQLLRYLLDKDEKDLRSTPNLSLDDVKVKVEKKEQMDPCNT
Test: Differential HDX-MS of liganded full-length VDRRXRα heterodimer with DNA VBS and SRC1 RID
Assay type: binding
Conditions: for decrease in solvent exchange within H12 of VDR upon SRC1 RID binding: ligand-heterodimer-DR3 or -DR3 half-site complex (both alike), aa412−419 for Cmpd1; for ΔΔHDX in the VDR hinge region (aa97−108): ΔHDX heterodimer:agonist ± DR3 minus ΔHDX heterodimer:agonist ± DR3 half-site
Procedure: The final protein buffer was 50 mM Tris (pH 8.0), 150 mM NaCl, 10% glycerol and 2 mM DTT.
The DR3 VBS 5′-[…]-3′, DR3 half-site VBS 5′-[…]-3′, BGLAP VBS 5′-[…]-3′, BGLAP* VBS 5′-[…]-3′ and TRPV6 VBS 5′-[…]-3′ duplex oligonucleotides were purchased from Integrated DNA Technologies. […] SRC1 RID was added in a 2× molar ratio to heterodimer, and oligonucleotide (VBS) was mixed with the protein complex as needed (1.5× molar ratio). […]
Solution-phase amide HDX experiments were carried out with a fully automated system (CTC HTS PAL, LEAP Technologies, Carrboro, NC; housed inside a 4 °C cabinet) as follows.
HDX-MS analysis: 10 μM of the apo protein was mixed with 1:10 molar excess of ligand and incubated for 2 h at 4 °C for complex formation before subjecting them to HDX analysis. For the differential HDX experiments, 5 μl of either the apo or the liganded protein complex with DNA and SRC1 RID were mixed with 20 μl of D2O-containing HDX buffer (50 mM Tris, pH 8.0, 150 mM NaCl, and 2 mM DTT) and incubated at 4 °C for 0 s, 10 s, 30 s, 60 s, 300 s, 900 s, or 3,600 s. Following on-exchange, unwanted forward-exchange or back-exchange was minimized and the protein was denatured by the addition of 25 μl of a quench solution (1% v/v TFA in 3 M urea and 50 mM TCEP). Samples were then immediately passed through an immobilized pepsin column (prepared in house) at 50 μl min-1 (0.1% v/v TFA, 15 °C) and the resulting peptides were trapped and desalted on a 1.0 mm × 10 mm C8 trap column (Hypersil Gold, Thermo Fisher, Grand Island, NY). The bound peptides were then gradient-eluted (5–50% CH3CN v/v and 0.3% v/v formic acid) across a 1.0 mm × 50 mm C18 separation column (Hypersil Gold, Thermo Fisher, Grand Island, NY) for 6 min. Sample handling and peptide separation were conducted at 4 °C. The eluted peptides were then subjected to electrospray ionization directly coupled to a high resolution Orbitrap mass spectrometer (LTQ Orbitrap XL with ETD, Q Exactive, or Exactive, Thermo Fisher Scientific, San Jose, CA). Each HDX experiment was carried out in triplicate with a single preparation of each protein-ligand complex. The intensity weighted mean m/z centroid value of each peptide envelope was calculated and subsequently converted into a percentage of deuterium incorporation. This is accomplished by determining the observed averages of the undeuterated and fully deuterated spectra using the conventional formula described elsewhere. […] Statistical significance for the differential HDX data is determined by an unpaired t-test for each time point, a procedure that is integrated into the HDX Workbench software.
Data Statistics: Deuterium uptake for each peptide is calculated as the average of % D for all on-exchange time points and the difference in average %D values between the apo and ligand bound samples is presented as a heat map with a color code given at the bottom of the figure (warm colors for deprotection and cool colors for protection). […] Peptides with non-significant changes between the two states are colored gray. The exchange at the first two residues for any given peptide is not colored.

[1] = both ligand-heterodimer-VBS complexes (DR3, DR3 half-site)

SMILES | decrease in solvent exchange within H12 of VDR upon SRC1 RID binding | ΔΔHDX in the VDR hinge region (aa97−108) [%] | decreased exchange for H1 of VDR upon SRC1 RID interaction [1] | decreased exchange for H3 of VDR upon SRC1 RID interaction [1] | further reduction in deuterium exchange of VDR AF2 H12 upon binding of TRPV6 VBS (ligand-bound heterodimer, not observed upon binding the BGLAP VBS) | protection to solvent exchange at VDR AF2 surface upon SRC1 RID interaction (ligand-heterodimer-BGLAP VBS complex) | protection to solvent exchange at VDR AF2 surface upon SRC1 RID interaction (ligand-heterodimer-TRPV6 VBS complex)
CCC(CC)(c1ccc(OCC(O)C(C)(C)C)c(C)c1)c1ccc(C(=O)N(C)CC(=O)O)c(C)c1 (stereo not drawn) [Cmpd1, [(4-{1-ethyl-1-[4-(2-hydroxy-3,3-dimethyl-butoxy)-3-methyl-phenyl]-propyl}-2-methyl-benzoyl)-methyl-amino]-acetic acid] | ~ 11% | 21 |  |  |  |  | 
CCc1cc(C(CC)(CC)c2ccc(OCC(O)C(C)(C)C)c(C)c2)sc1C(=O)N[C@@H](C)C(=O)O (single isomer, unassigned) [Cmpd2, L-2-[(5-{1-Ethyl-1-[4-(2-hydroxy-3,3-dimethyl-butoxy)-3-methyl-phenyl]-propyl}-3-ethyl-thiophene-2-carbonyl)-amino]-propionic acid] | ~ 20% | 19 | ~ 6% | ~ 9% |  |  | 
CCC(CC)(c1ccc(OCC(O)C(C)(C)C)c(C)c1)c1cc(C)c(C(=O)Nc2nnn[nH]2)s1 (stereo not drawn) [Cmpd3, 3'-[4-(2-hydroxy-3,3-dimethylbutoxy)-3-methylphenyl]-3'-[5-(tetrazol-5-yl-aminocarbonyl)-4-methylthiophen-2-yl]pentane] |  |  |  |  | ~ 13% | ~ 20% | ~ 9%
